From patent US9469650B2, “Melampomagnolide B derivatives” (BOARD OF TRUSTEES OF THE UNIVERSITY OF ARKANSAS, priority 2013, dated 2016)

Tests used:
SK-OV-3 = assay: panel of 60 human tumor cell lines, growth inhibition (Ovarian Cancer); details: SK-OV-3
UO-31 [1] = assay: panel of 60 human tumor cell lines, growth inhibition (Renal Cancer); details: UO-31
DU-145 = assay: panel of 60 human tumor cell lines, growth inhibition (Prostate Cancer); details: DU-145
UO-31 [2] = system: UO-31
SK-MEL-2 = assay: panel of 60 human tumor cell lines, growth inhibition (Melanoma); details: SK-MEL-2
NCI-H322M = assay: panel of 60 human tumor cell lines, growth inhibition (Non-Small Cell Lung Cancer)
HCT-15 = assay: panel of 60 human tumor cell lines, growth inhibition (Colon Cancer); details: HCT-15
BT-549 = assay: panel of 60 human tumor cell lines, growth inhibition (Breast Cancer)
M14 = assay: panel of 60 human tumor cell lines, growth inhibition (Melanoma); details: M14
SNB-75 = assay: panel of 60 human tumor cell lines, growth inhibition (CNS Cancer); details: SNB-75
[3] = 81-549, Log10 Concentration −4.0
[4] = 81-549, Log10 Concentration −5.0
[5] = 81-549, Log10 Concentration −6.0
[6] = 81-549, Log10 Concentration −7.0
[7] = 81-549, Log10 Concentration −8.0

Structure (SMILES): C=C1C(=O)O[C@H]2[C@H]1CC/C(COC(=O)N1CCN(C)CC1)=C\CC[C@@]1(C)O[C@@H]21 [JVM 2-44]
- GI50 (SK-OV-3): 31.8 µM
- TGI (SK-OV-3): >1.00E−4
- Mean Optical Densities (SK-OV-3; Log10 Concentration −4.0): 1.032
- Percent Growth (SK-OV-3; Log10 Concentration −4.0): 4%
- Mean Optical Densities (SK-OV-3; Log10 Concentration −5.0): 1.852
- Percent Growth (SK-OV-3; Log10 Concentration −5.0): 96%
- Mean Optical Densities (SK-OV-3; Log10 Concentration −6.0): 1.892
- Percent Growth (SK-OV-3; Log10 Concentration −6.0): 101%
- Mean Optical Densities (SK-OV-3; Log10 Concentration −7.0): 1.808
- Percent Growth (SK-OV-3; Log10 Concentration −7.0): 91%
- Mean Optical Densities (SK-OV-3; Log10 Concentration −8.0): 1.885
- Percent Growth (SK-OV-3; Log10 Concentration −8.0): 100%
- GI50 (UO-31 [1]): 3.08 µM
- TGI (UO-31 [1]): 1.54E−5
- Mean Optical Densities (UO-31 [1]; Log10 Concentration −4.0): 0.127
- Percent Growth (UO-31 [1]; Log10 Concentration −4.0): −83%
- Mean Optical Densities (UO-31 [1]; Log10 Concentration −5.0): 0.983
- Percent Growth (UO-31 [1]; Log10 Concentration −5.0): 19%
- Mean Optical Densities (UO-31 [1]; Log10 Concentration −6.0): 1.744
- Percent Growth (UO-31 [1]; Log10 Concentration −6.0): 80%
- Mean Optical Densities (UO-31 [1]; Log10 Concentration −7.0): 1.737
- Percent Growth (UO-31 [1]; Log10 Concentration −7.0): 79%
- Mean Optical Densities (UO-31 [1]; Log10 Concentration −8.0): 1.731
- Percent Growth (UO-31 [1]; Log10 Concentration −8.0): 79%
- GI50 (DU-145): 3.98 µM
- TGI (DU-145): 1.44E−5
- Mean Optical Densities (DU-145; Log10 Concentration −4.0): 0.835
- Percent Growth (DU-145; Log10 Concentration −4.0): −93%
- Mean Optical Densities (DU-145; Log10 Concentration −5.0): 0.750
- Percent Growth (DU-145; Log10 Concentration −5.0): 17%
- Mean Optical Densities (DU-145; Log10 Concentration −6.0): 1.844
- Percent Growth (DU-145; Log10 Concentration −6.0): 99%
- Mean Optical Densities (DU-145; Log10 Concentration −7.0): 1.845
- Percent Growth (DU-145; Log10 Concentration −7.0): 99%
- Mean Optical Densities (DU-145; Log10 Concentration −8.0): 1.839
- Percent Growth (DU-145; Log10 Concentration −8.0): 99%
- CC50 (UO-31 [2]): 47.6 µM
- GI50 (SK-MEL-2): 17.2 µM
- TGI (SK-MEL-2): 3.60E−5
- Mean Optical Densities (SK-MEL-2; Log10 Concentration −4.0): 0.382
- Percent Growth (SK-MEL-2; Log10 Concentration −4.0): −69%
- Mean Optical Densities (SK-MEL-2; Log10 Concentration −5.0): 1.984
- Percent Growth (SK-MEL-2; Log10 Concentration −5.0): 87%
- Mean Optical Densities (SK-MEL-2; Log10 Concentration −6.0): 2.148
- Percent Growth (SK-MEL-2; Log10 Concentration −6.0): 106%
- Mean Optical Densities (SK-MEL-2; Log10 Concentration −7.0): 2.037
- Percent Growth (SK-MEL-2; Log10 Concentration −7.0): 93%
- Mean Optical Densities (SK-MEL-2; Log10 Concentration −8.0): 2.082
- Percent Growth (SK-MEL-2; Log10 Concentration −8.0): 98%
- GI50 (NCI-H322M): 16.2 µM
- TGI (NCI-H322M): 5.44E−5
- Mean Optical Densities (NCI-H322M; Log10 Concentration −4.0): 0.569
- Percent Growth (NCI-H322M; Log10 Concentration −4.0): −25%
- Mean Optical Densities (NCI-H322M; Log10 Concentration −5.0): 1.434
- Percent Growth (NCI-H322M; Log10 Concentration −5.0): 70%
- Mean Optical Densities (NCI-H322M; Log10 Concentration −6.0): 1.650
- Percent Growth (NCI-H322M; Log10 Concentration −6.0): 93%
- Mean Optical Densities (NCI-H322M; Log10 Concentration −7.0): 1.624
- Percent Growth (NCI-H322M; Log10 Concentration −7.0): 91%
- Mean Optical Densities (NCI-H322M; Log10 Concentration −8.0): 1.649
- Percent Growth (NCI-H322M; Log10 Concentration −8.0): 93%
- GI50 (HCT-15): 3.01 µM
- TGI (HCT-15): 1.42E−5
- Mean Optical Densities (HCT-15; Log10 Concentration −4.0): 0.108
- Percent Growth (HCT-15; Log10 Concentration −4.0): −71%
- Mean Optical Densities (HCT-15; Log10 Concentration −5.0): 0.643
- Percent Growth (HCT-15; Log10 Concentration −5.0): 13%
- Mean Optical Densities (HCT-15; Log10 Concentration −6.0): 2.210
- Percent Growth (HCT-15; Log10 Concentration −6.0): 84%
- Mean Optical Densities (HCT-15; Log10 Concentration −7.0): 2.370
- Percent Growth (HCT-15; Log10 Concentration −7.0): 92%
- Mean Optical Densities (HCT-15; Log10 Concentration −8.0): 2.435
- Percent Growth (HCT-15; Log10 Concentration −8.0): 94%
- TGI (BT-549; 81-549): 1.81E−5
- Mean Optical Densities (BT-549; [3]): 0.180
- Percent Growth (BT-549; [3]): −86%
- Mean Optical Densities (BT-549; [4]): 1.522
- Percent Growth (BT-549; [4]): 30%
- Mean Optical Densities (BT-549; [5]): 1.985
- Percent Growth (BT-549; [5]): 84%
- Mean Optical Densities (BT-549; [6]): 1.951
- Percent Growth (BT-549; [6]): 80%
- Mean Optical Densities (BT-549; [7]): 2.028
- Percent Growth (BT-549; [7]): 89%
- GI50 (M14): 8.89 µM
- TGI (M14): 2.58E−5
- Mean Optical Densities (M14; Log10 Concentration −4.0): 0.178
- Percent Growth (M14; Log10 Concentration −4.0): −68%
- Mean Optical Densities (M14; Log10 Concentration −5.0): 1.229
- Percent Growth (M14; Log10 Concentration −5.0): 48%
- Mean Optical Densities (M14; Log10 Concentration −6.0): 1.877
- Percent Growth (M14; Log10 Concentration −6.0): 94%
- Mean Optical Densities (M14; Log10 Concentration −7.0): 1.848
- Percent Growth (M14; Log10 Concentration −7.0): 91%
- Mean Optical Densities (M14; Log10 Concentration −8.0): 1.953
- Percent Growth (M14; Log10 Concentration −8.0): 99%
- GI50 (SNB-75): 7.65 µM
- TGI (SNB-75): 2.40E−5
- Mean Optical Densities (SNB-75; Log10 Concentration −4.0): 0.183
- Percent Growth (SNB-75; Log10 Concentration −4.0): −76%
- Mean Optical Densities (SNB-75; Log10 Concentration −5.0): 1.112
- Percent Growth (SNB-75; Log10 Concentration −5.0): 47%
- Mean Optical Densities (SNB-75; Log10 Concentration −6.0): 1.330
- Percent Growth (SNB-75; Log10 Concentration −6.0): 76%
- Mean Optical Densities (SNB-75; Log10 Concentration −7.0): 1.274
- Percent Growth (SNB-75; Log10 Concentration −7.0): 68%
- Mean Optical Densities (SNB-75; Log10 Concentration −8.0): 1.343
- Percent Growth (SNB-75; Log10 Concentration −8.0): 78%
- CC50 (NCI/ADR-RES): > 100 µM
